Test [1] deals with MYB mRNA. The test is described as follows: RT-qPCR splicing assay, MYB canonical junction (CJ) and alternative junction (AJ) mRNA. In kind it is cell-based, human. The following applies: Homo sapiens; for AC50: increase in MYB alternative junction (AJ) mRNA, read-out: MYB AJ AC50. An outline of the steps:
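Read-out is one-step RT-qPCR on cell lysates detecting the exon-exon junction of each isoform, normalized to a housekeeping gene (PPIA in A673, GAPDH or GUSB in K562).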

In test [2] the test system is Target C. The test is described as follows: RT-qPCR splicing assay panel, Target C canonical junction (CJ) mRNA. In kind it is cell-based, human. The following applies: Homo sapiens; Table 5 panel; canonical junction qPCR; compound concentration having 50% response in CJ decrease; read-out: Target C IC50 (decrease in CJ mRNA levels). The procedure, abridged:
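Read-out is canonical exon-exon junction mRNA quantified by RT-qPCR against a GAPDH, GUSB or PPIA control. Cells (A673 or K562) received compound for 24 h, top final dose 10 uM in an 11-point 3-fold series.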
Background: In qPCR the cycle at which signal appears reflects the starting amount.

In test [3] the test system is K562 (human chronic myelogenous leukemia) cells. The test is described as follows: Cell Titer Glo 2.0 cell viability assay. In kind it is cell-based. The settings on record: K562 cells, 72 hours, Cell Titer Glo 2.0, read-out: K562 GI50. In general terms: ATP-based viability assays read luminescence as a measure of living cells.
Method: Compounds described herein were screened for toxicity in K562 (human chronic myelogenous leukemia) cells using a Cell Titer Glo 2.0 assay.
Cells were plated at 500 cells/well (K562 cells) in 45 μL of IMDM supplemented with 1000 FBS in a 384-well opaque plate. Wells containing only medium were used as a blank control. Test compounds (e.g., compounds ofFormula (I), (II), (III), (IV), (V), (VI), (VII), (VIII), and (IX)) were first serially diluted in DMSO then diluted 1:100 with IMDM+10% FBS. The final concentration of DMSO was 0.1% in each well. The cells were incubated for 72 hours at 37° C. and 500 CO2 before assaying with Cell Titer Glo 2.0 reagent.
The mark [4] stands for this setting: Table 5 panel, canonical junction qPCR, compound concentration having 50% response in CJ decrease, read-out: MYB IC50 (decrease in CJ mRNA levels).
Where [5] appears, read: decrease in MYB canonical junction (CJ) mRNA, RT-qPCR, read-out: MYB CJ IC50.

Each structure is given as a SMILES string. Read-outs that look alike come from different tables or passages of the source.

For `Cc1cn2cc(-c3cc(F)c4c(=O)n(N5CCNCC5)cnc4c3)cc(F)c2n1` [Compound 340, 5-fluoro-7-{8-fluoro-2-methylimidazo[1,2-a]pyridin-6-yl}-3-(piperazin-1-yl)quinazolin-4-one], the IC50 is less than 100 nM in test [1] (setting [4]), less than 100 nM in test [1] (setting [5]) and 100 to 1000 nM in test [2]. In addition, the AC50 in test [1] (RT-qPCR) was less than 100 nM. Also, the GI50 in test [3] (Homo sapiens, K562, 72 h) is 100 to 1000 nM.

In the case of `Cc1cn2cc(-c3cc(F)c4c(=O)n(C5=CCNCC5)cnc4c3)cc(F)c2n1` [Compound 342], the IC50 in test [1] (setting [4]) is less than 100 nM; in test [1] (setting [5]), less than 100 nM; in test [2], 100 to 1000 nM. Further, the AC50 in test [1] (RT-qPCR) is less than 100 nM. Besides, in test [3] (Homo sapiens, K562, 72 h), the GI50 is less than 100 nM.

With `Cc1cn2nc(-c3cc(N(C)C)c4c(=O)n(C5CCNC6(CC6)C5)cnc4c3)cc(C)c2n1` (stereo not shown) [Compound 345], the IC50 in test [1] (setting [4]), in test [1] (setting [5]) and in test [2] was less than 100 nM in each case. Moreover, in test [1] (RT-qPCR), the AC50 is less than 100 nM. Also, the GI50 in test [3] (Homo sapiens, K562, 72 h) is greater than 10000 nM.

As to `Cc1cn2cc(-c3cc(F)c4c(=O)n([C@H]5CCN[C@H](C)C5)cnc4c3)cc(F)c2n1` [Compound 346, trans-5-fluoro-7-(8-fluoro-2-methylimidazo[1,2-a]pyridin-6-yl)-3-(2-methylpiperidin-4-yl)quina-zolin-4(3H)-one], the results for the IC50 in test [1] (setting [4]), in test [1] (setting [5]) and in test [2] were less than 100 nM, less than 100 nM and 100 to 1000 nM, respectively. The AC50 in test [1] (RT-qPCR) is less than 100 nM. In test [3] (Homo sapiens, K562, 72 h), the concentration for 50% growth inhibition (GI50) was 100 to 1000 nM.

On to `Cc1cn2cc(-c3cc(F)c4c(=O)n([C@H]5CCNC[C@@H]5O)cnc4c3)cc(F)c2n1` [Compound 347, 5-fluoro-7-{8-fluoro-2-methylimidazo[1,2-a]pyridin-6-yl}-3-[(3S,4S)-3-hydroxypiperidin-4-yl]quinazolin-4-one], for which the IC50 in test [1] (setting [4]) lay in the range of 100 to 1000 nM; in test [1] (setting [5]), 1000 to 10000 nM; in test [2] it was 1000 to 10000 nM. Also, the AC50 in test [1] (RT-qPCR) lay within 1000 to 10000 nM. Further, in test [3] (Homo sapiens, K562, 72 h), the GI50 was greater than 10000 nM.

As to `Cc1cn2cc(-c3cc(F)c4c(=O)n([C@H]5CNCC[C@@H]5O)cnc4c3)cc(F)c2n1` [Compound 348, 5-fluoro-7-{8-fluoro-2-methylimidazo[1,2-a]pyridin-6-yl}-3-[(3S,4S)-4-hydroxypiperidin-3-yl]quinazolin-4-one], the IC50 in test [1] (setting [4]), in test [1] (setting [5]) and in test [2] was greater than 10000 nM each time. For the same compound, the AC50 in test [1] (RT-qPCR) is greater than 10000 nM. Besides, the GI50 in test [3] (Homo sapiens, K562, 72 h) is greater than 10000 nM.

With `Cc1cn2nc(-c3ccc4c(=O)n([C@H]5CCNC6(CC6)C5)cnc4c3)cc(C)c2n1` [Compound 349, 3-[(7S)-4-azaspiro[2.5]octan-7-yl]-7-{2,8-dimethylimidazo[1,2-b]pyridazin-6-yl}quinazolin-4-one], the IC50 fell in the range of 100 to 1000 nM in test [1] (setting [4]), 100 to 1000 nM in test [1] (setting [5]) and 1000 to 10000 nM in test [2]. For the same compound, in test [1] (RT-qPCR), the AC50 was in the range of 100 to 1000 nM. Besides, the GI50 in test [3] (Homo sapiens, K562, 72 h) lay in the range of 1000 to 10000 nM.

Take `Cc1cn2nc(-c3ccc4c(=O)n([C@@H]5CCNC6(CC6)C5)cnc4c3)cc(C)c2n1` [Compound 350, 3-[(7R)-4-azaspiro[2.5]octan-7-yl]-7-{2,8-dimethylimidazo[1,2-b]pyridazin-6-yl}quinazolin-4-one]: the IC50 in test [1] (setting [4]) is less than 100 nM; in test [1] (setting [5]), less than 100 nM; in test [2], 100 to 1000 nM. Moreover, the AC50 in test [1] (RT-qPCR) was less than 100 nM. In addition, the GI50 in test [3] was 100 to 1000 nM.

For the compound `Cc1cn2nc(-c3cc(F)c4c(=O)n(C5CCNC6(CC6)C5)cnc4c3)cc(C)c2n1` (stereo not shown) [Compound 351], the IC50 in test [1] (setting [4]), in test [1] (setting [5]) and in test [2] was less than 100 nM throughout. Also, the AC50 in test [1] (RT-qPCR) was less than 100 nM. For the same compound, the GI50 in test [3] (Homo sapiens, K562, 72 h) lay within 100 to 1000 nM.

With `Cc1cn2cc(-c3cc(F)c4c(=O)n(C5CNCCC5=O)cnc4c3)cc(F)c2n1` (stereo not shown) [Compound 352, 5-fluoro-7-{8-fluoro-2-methylimidazo[1,2-a]pyridin-6-yl}-3-(4-oxopiperidin-3-yl)quinazolin-4-one], the IC50 in test [1] (setting [4]), in test [1] (setting [5]) and in test [2] was greater than 10000 nM in each case. The AC50 in test [1] (RT-qPCR) was greater than 10000 nM. The GI50 in test [3] (Homo sapiens, K562, 72 h) was greater than 10000 nM.

Take `Cc1cn2cc(-c3cc(F)c4c(=O)n(C5CCCNCC5)cnc4c3)cc(F)c2n1` (stereo not shown) [Compound 353, 3-(azepan-4-yl)-5-fluoro-7-{8-fluoro-2-methylimidazo[1,2-a]pyridin-6-yl}quinazolin-4-one]: the IC50 in test [1] (setting [4]) is 100 to 1000 nM; in test [1] (setting [5]), 100 to 1000 nM; in test [2] it was 1000 to 10000 nM. Besides, the AC50 in test [1] (RT-qPCR) is 100 to 1000 nM. In test [3] (Homo sapiens, K562, 72 h), the GI50 lay within 100 to 1000 nM.

Take `Cc1ncc(-c2ccc3c(=O)n(C4CCNCC4)cnc3c2)cn1` [Compound 354, 7-(2-methylpyrimidin-5-yl)-3-(piperidin-4-yl)quinazolin-4(3H)-one]: the IC50 in test [1] (setting [4]), in test [1] (setting [5]) and in test [2] was 1000 to 10000 nM each time. Besides, the concentration at half-maximal activity (AC50) in test [1] (RT-qPCR) is 1000 to 10000 nM. Also, in test [3] (Homo sapiens, K562, 72 h), the GI50 lay in the range of 1000 to 10000 nM.

On to `Cc1cn2nc(-c3cc(C)c4c(=O)n(C5CCNCC5)cnc4c3)cc(C)c2n1` [Compound 355], for which the IC50 in test [1] (setting [4]) is less than 100 nM; in test [1] (setting [5]), less than 100 nM; in test [2], 100 to 1000 nM. For the same compound, in test [1] (RT-qPCR), the AC50 was less than 100 nM. Further, the GI50 in test [3] (Homo sapiens, K562, 72 h) was 100 to 1000 nM.

Take `Cc1cn2nc(-c3cc(F)c4c(=O)n([C@@H]5CCNC6(CC6)C5)cnc4c3)cc(C)c2n1` [Compound 356]: the IC50 in test [1] (setting [4]) is 100 to 1000 nM; in test [1] (setting [5]), less than 100 nM; in test [2] it was 100 to 1000 nM. Moreover, the AC50 in test [1] (RT-qPCR) is 100 to 1000 nM. Moreover, the GI50 in test [3] (Homo sapiens, K562, 72 h) was in the range of 100 to 1000 nM.

With `CNc1cc(-c2cc(F)c3nc(C)cn3c2)cc2ncn(C3CCNCC3)c(=O)c12` [Compound 358, 7-{8-fluoro-2-methylimidazo[1,2-a]pyridine-6-yl}-5-(methylamino)-3-(piperidin-4-yl)quinazolin-4-one], the half-maximal inhibitory concentration (IC50) in test [1] (setting [4]) is 1000 to 10000 nM; in test [1] (setting [5]), 1000 to 10000 nM; in test [2], greater than 10000 nM. For the same compound, in test [1] (RT-qPCR), the AC50 lay within 1000 to 10000 nM. Moreover, the GI50 in test [3] (Homo sapiens, K562, 72 h) was 1000 to 10000 nM.

For `CNc1cc(-c2cc(C)c3nc(C)cn3n2)cc2ncn(C3CCNCC3)c(=O)c12` [Compound 359, 7-{2,8-dimethylimidazo[1,2-b]pyridazin-6-yl}-5-(methylamino)-3-(piperidin-4-yl)quinazolin-4-one], the IC50 was less than 100 nM in test [1] (setting [4]), 1000 to 10000 nM in test [1] (setting [5]) and greater than 10000 nM in test [2]. The AC50 in test [1] (RT-qPCR) is less than 100 nM. Further, the GI50 in test [3] (Homo sapiens, K562, 72 h) lay within 100 to 1000 nM.

`CNc1cc(-c2cn3cc(C)nc3c(C)n2)cc2ncn(C3CCNCC3)c(=O)c12` [Compound 360, 7-{2,8-dimethylimidazo[1,2-a]pyrazine-6-yl}-5-(methylamino)-3-(piperidin-4-yl)quinazolin-4-one]: the IC50 in test [1] (setting [4]) was 1000 to 10000 nM; in test [1] (setting [5]), greater than 10000 nM; in test [2], greater than 10000 nM. Moreover, the AC50 in test [1] (RT-qPCR) is 1000 to 10000 nM. Moreover, the GI50 in test [3] (Homo sapiens, K562, 72 h) lay in the range of 1000 to 10000 nM.

On to `Cc1cc(-c2cc(F)c3c(=O)n(C4CCNC5(CC5)C4)cnc3c2)nc2cn(C)nc12` (stereo not shown) [Compound 361, 3-{4-azaspiro[2.5]octan-7-yl}-7-{2,7-dimethylpyrazolo[4,3-b]pyridin-5-yl}-5-fluoroquinazolin-4-one], for which the IC50 in test [1] (setting [4]) is less than 100 nM; in test [1] (setting [5]) it was less than 100 nM; in test [2] it was 100 to 1000 nM. Moreover, the AC50 in test [1] (RT-qPCR) was less than 100 nM. The GI50 in test [3] (Homo sapiens, K562, 72 h) is 100 to 1000 nM.

`Cc1cn2nc(-c3cc(O)c4c(=O)n(C5CCNC5)cnc4c3)cc(C)c2n1` (stereo not shown) [Compound 362, 7-{2,8-dimethylimidazo[1,2-b]pyridazin-6-yl}-5-hydroxy-3-(pyrrolidin-3-yl)quinazolin-4-one]: the IC50 in test [1] (setting [4]) was 1000 to 10000 nM; in test [1] (setting [5]), 1000 to 10000 nM; in test [2] it was greater than 10000 nM. The AC50 in test [1] (RT-qPCR) lay in the range of 1000 to 10000 nM. Moreover, the GI50 in test [3] (Homo sapiens, K562, 72 h) lay within 1000 to 10000 nM.

On to `CNc1cc(-c2cc(C#N)c3nc(C)cn3c2)cc2ncn(C3CCNCC3)c(=O)c12` [Compound 363, 2-methyl-6-[5-(methylamino)-4-oxo-3-(piperidin-4-yl)quinazolin-7-yl]imidazo[1,2-a]pyridine-8-carbonitrile], for which the IC50 in test [1] (setting [4]), in test [1] (setting [5]) and in test [2] was greater than 10000 nM each time. Moreover, the half-maximal activity concentration (AC50) in test [1] (RT-qPCR) was greater than 10000 nM. Besides, the GI50 in test [3] (Homo sapiens, K562, 72 h) is 1000 to 10000 nM.

The IC50 is the concentration that inhibits the measured activity by half. As a reminder, the AC50 is the midpoint of the concentration-response curve, whichever way the signal moves. What is called GI50 is the concentration at which growth is held to half of that of the control.

The values are drawn from patent US20250332173A1, “COMPOUNDS AND METHODS FOR MODULATING NUCLEIC ACID SPLICING” (REMIX THERAPEUTICS INC., priority 2021, published 2025).
